Values quoted from earlier work in US20190105278A1, “SHELLAC MICROCAPSULE FORMULATIONS AND COMPOSITIONS” (CONARIS RESEARCH INSTITUTE AG, priority 2016, published 2019).

Details: EFSA; for acceptable daily intake (ADI): preparations with at least 90% purity

Row | Compound | upper systemic intake limit | acceptable daily intake (ADI)
1 | CC(=O)Nc1ccc(S(=O)(=O)[O-])c2cc(S(=O)(=O)[O-])c(N=Nc3ccc(N=Nc4ccc(S(=O)(=O)[O-])cc4)c4ccc(S(=O)(=O)[O-])cc34)c(O)c12.[Na+].[Na+].[Na+].[Na+] [brilliant black BN] | 5 mg/kg | 5 mg/kg body weight
2 | O=C1/C(=C2\Nc3ccc(S(=O)(=O)[O-])cc3C2=O)Nc2ccc(S(=O)(=O)[O-])cc21.[Na+].[Na+] [indigo carmine] | – | 5 mg/kg body weight
3 | CCN(CC)c1ccc(C(=C2C=CC(=[N+](CC)CC)C=C2)c2cc(O)c(S(=O)(=O)[O-])cc2S(=O)(=O)[O-])cc1.CCN(CC)c1ccc(C(=C2C=CC(=[N+](CC)CC)C=C2)c2cc(O)c(S(=O)(=O)[O-])cc2S(=O)(=O)[O-])cc1.[Ca+2] [patent blue V] | 5 mg/kg | 5 mg/kg body weight
